For the test, the target named is T1, human somatostatin receptor subtype 2 (Homo sapiens, UniProt P30874).
T1 construct: expressed in transfected cells
Nature of the test: cAMP functional assay for SSTR2 agonists. The class given is cell-based. Conditions: inhibition of cAMP activities via human SST2 receptor (SSTR2), CHO-K1 cells; read-out: EC50. In outline:
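CHO-K1 cells stably expressing human SSTR2 were treated for 20 min at 37 °C with compound plus NKH477 (added as 1.6 μM) in HBSS with IBMX. Intracellular cAMP was measured by HTRF against a standard curve. EC50 values came from concentration-response curves.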

T1 sequence (P30874 whole entry): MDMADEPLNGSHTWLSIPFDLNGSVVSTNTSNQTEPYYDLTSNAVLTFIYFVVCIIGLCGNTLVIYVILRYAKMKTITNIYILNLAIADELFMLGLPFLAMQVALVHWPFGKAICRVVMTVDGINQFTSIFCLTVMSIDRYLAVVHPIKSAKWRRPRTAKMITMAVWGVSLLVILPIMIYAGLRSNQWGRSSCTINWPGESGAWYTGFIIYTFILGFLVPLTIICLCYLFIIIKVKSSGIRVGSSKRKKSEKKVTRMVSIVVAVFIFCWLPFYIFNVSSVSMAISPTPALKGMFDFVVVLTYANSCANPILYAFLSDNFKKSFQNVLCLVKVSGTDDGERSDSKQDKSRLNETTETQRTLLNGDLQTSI

For orientation: EC50 means the concentration needed to bring the measured effect to its halfway point. Consider `CONC(=O)c1ccc2[nH]c(-c3c(N)ncc(-c4cc(C)cc(F)c4)c3N3CCC(N)CC3)nc2c1` [Compound 1-23, 2-[2-amino-4-(4-aminopiperidin-1-yl)-5-(3-fluoro-5-methylphenyl)pyridin-3-yl]-N-methoxy-1H-1,3-benzodiazole-5-carboxamide], for which the EC50 was 10 to 100 nM.
As for `Cc1cc(F)cc(-c2cnc(N)c(-c3nc4cccc(C=NO)c4[nH]3)c2N2CCC(N)CC2)c1` [Compound 1-22, 4-(4-aminopiperidin-1-yl)-5-(3-fluoro-5-methylphenyl)-3-{7-[(hydroxyimino)methyl]-1H-1,3-benzodiazol-2-yl]pyridin-2-amine], the EC50 is < 10 nM.
In the case of `COc1ccc2c(C#N)c(-c3nncc(-c4cc(C)cc(F)c4)c3N3CCC(N)CC3)[nH]c2c1` [Compound 3-25, 2-[4-(4-aminopiperidin-1-yl)-5-(3-fluoro-5-methylphenyl)pyridazin-3-yl]-6-methoxy-1H-indole-3-carbonitrile], the EC50 is < 10 nM.
With `Cc1cc(F)cc(-c2cnc(O)c(-c3nc4cc(Cl)ccc4[nH]3)c2N2CCC(N)CC2)c1` [Compound 2-4, 4-(4-aminopiperidin-1-yl)-3-(5-chloro-1H-1,3-benzodiazol-2-yl)-5-(3-fluoro-5-methylphenyl)pyridin-2-ol], the EC50 was < 10 nM.
`Cc1cc(F)cc(-c2cnnc(-c3cc4cccc(Cl)c4[nH]3)c2N2CCC(N)CC2)c1` [Compound 3-7, 1-[3-(7-chloro-1H-indol-2-yl)-5-(3-fluoro-5-methylphenyl)pyridazin-4-yl]piperidin-4-amine]: the 50% effective concentration (EC50) is < 10 nM.
In the case of `COC(=O)Nc1ccc2[nH]c(-c3c(N)ncc(-c4cc(C)cc(F)c4)c3N3CCC(N)CC3)nc2c1` [Compound 1-45, methyl N-{2-[2-amino-4-(4-aminopiperidin-1-yl)-5-(3-fluoro-5-methylphenyl)pyridin-3-yl]-1H-1,3-benzodiazol-5-yl}carbamate], the EC50 was < 10 nM.
With `Cc1cc(F)cc(-c2cnc(N)c(-c3nc4cnccc4[nH]3)c2N2CCC(N)CC2)c1` [Compound 1-51, 4-(4-aminopiperidin-1-yl)-5-(3-fluoro-5-methylphenyl)-3-{1H-imidazo[4,5-c]pyridin-2-yl}pyridin-2-amine], the half-maximal effective concentration (EC50) was < 10 nM.
On to `CONC(=O)c1ccc2cc(-c3nncc(-c4cc(C)cc(F)c4)c3N3CCC(N)CC3)[nH]c2c1` [Compound 3-20, 2-[4-(4-aminopiperidin-1-yl)-5-(3-fluoro-5-methylphenyl)pyridazin-3-yl]-N-methoxy-1H-indole-6-carboxamide], for which the EC50 lay within 10 to 100 nM.
For the molecule `Nc1ncc(-c2cc(F)cc(F)c2)c(N2CCC(N)CC2)c1-c1nc2cc(OC(F)(F)F)ccc2[nH]1` [Compound 1-86, 4-(4-aminopiperidin-1-yl)-5-(3,5-difluorophenyl)-3-[5-(trifluoromethoxy)-1H-1,3-benzodiazol-2-yl]pyridin-2-amine], the concentration for a half-maximal effect (EC50) is < 10 nM.
For `Cc1cc(F)cc(-c2cnc(O)c(-c3nc4cc(F)c(F)cc4[nH]3)c2N2CCC(N)CC2)c1` [Compound 2-7, 4-(4-aminopiperidin-1-yl)-3-(5,6-difluoro-1H-1,3-benzodiazol-2-yl)-5-(3-fluoro-5-methylphenyl)pyridin-2-ol] the value was 10 to 100 nM; for `CONC(=O)Nc1ccc2[nH]c(-c3c(N)ncc(-c4cc(C)cc(F)c4)c3N3CCC(N)CC3)nc2c1` [Compound 1-46, 1-{2-[2-amino-4-(4-aminopiperidin-1-yl)-5-(3-fluoro-5-methylphenyl)pyridin-3-yl]-1H-1,3-benzodiazol-5-yl}-3-methoxyurea], < 10 nM; for `COc1ncc(-c2cc(C)cc(F)c2)c(N2CCC(N)CC2)c1-c1nc2cc(C#N)ccc2[nH]1` [Compound 2-8, 2-[4-(4-aminopiperidin-1-yl)-5-(3-fluoro-5-methylphenyl)-2-methoxypyridin-3-yl]-1H-1,3-benzodiazole-5-carbonitrile], < 10 nM.
The same measure for `C=Cn1c(-c2c(N)ncc(-c3cc(C)cc(F)c3)c2N2CCC(N)CC2)nc2cc(F)c(F)cc21` [Compound 1-4, 4-(4-aminopiperidin-1-yl)-3-(1-ethenyl-5,6-difluoro-1H-1,3-benzodiazol-2-yl)-5-(3-fluoro-5-methylphenyl)pyridin-2-amine]: < 10 nM; for `Cc1cc(Cl)cc(-c2cnc(N)c(C=NO)c2N2CCC(N)CC2)c1` [Compound 1-39, 4-(4-aminopiperidin-1-yl)-5-(3-chloro-5-methylphenyl)-3-[(hydroxyimino)methyl]pyridin-2-amine]: > 100 nM; for `CON=Cc1cc(OC)c2[nH]c(-c3c(N)ncc(-c4cc(C)cc(F)c4)c3N3CCC(N)CC3)nc2c1` [Compound 1-76, 4-(4-aminopiperidin-1-yl)-5-(3-fluoro-5-methylphenyl)-3-{7-methoxy-5-[(methoxyimino)methyl]-1H-1,3-benzodiazol-2-yl}pyridin-2-amine]: < 10 nM.
With `CNc1ncc(-c2cc(C)cc(F)c2)c(N2CCC(N)CC2)c1-c1nc2ccc(C#N)cc2[nH]1` [Compound 1-70, 2-[4-(4-aminopiperidin-1-yl)-5-(3-fluoro-5-methylphenyl)-2-(methylamino)pyridin-3-yl]-1H-1,3-benzodiazole-6-carbonitrile], the 50% effective concentration (EC50) is < 10 nM.
`Cc1cc(F)cc(-c2cnc(N)c(C=NOC(C)(C)C)c2N2CCC(N)CC2)c1` [Compound 1-35]: the 50% effective concentration (EC50) is < 10 nM.
With `Cc1cc(F)cc(-c2cnc(N)c(-c3nc4cc(OC5COC5)ccc4[nH]3)c2N2CCC(N)CC2)c1` [Compound 1-16, 4-(4-aminopiperidin-1-yl)-5-(3-fluoro-5-methylphenyl)-3-[5-(oxetan-3-yloxy)-1H-1,3-benzodiazol-2-yl]pyridin-2-amine], the EC50 was < 10 nM.
For `CON=Cc1cc(F)c2[nH]c(-c3c(N)ncc(-c4cc(C)cc(F)c4)c3N3CCC(N)CC3)nc2c1` [Compound 1-61, 4-(4-aminopiperidin-1-yl)-5-(3-fluoro-5-methylphenyl)-3-{7-fluoro-5-[(methoxyimino)methyl]-1H-1,3-benzodiazol-2-yl}pyridin-2-amine] the value was < 10 nM; for `Nc1ncc(-c2cc(F)cc(F)c2)c(N2CCC(N)CC2)c1-c1nc2cc(Cl)cc(F)c2[nH]1` [Compound 1-82, 4-(4-aminopiperidin-1-yl)-3-(5-chloro-7-fluoro-1H-1,3-benzodiazol-2-yl)-5-(3,5-difluorophenyl)pyridin-2-amine], < 10 nM; for `Cc1cc(F)cc(-c2cnnc(-c3cc4cc(F)ccc4[nH]3)c2N2CCC(N)CC2)c1` [Compound 3-8, 1-[3-(5-fluoro-1H-indol-2-yl)-5-(3-fluoro-5-methylphenyl)pyridazin-4-yl]piperidin-4-amine], < 10 nM.
For `COc1cc(F)cc(-c2cnc(N)c(-c3nc4cc(F)cc(F)c4[nH]3)c2N2CCC(N)CC2)c1` [Compound 1-67, 4-(4-aminopiperidin-1-yl)-3-(5,7-difluoro-1H-1,3-benzodiazol-2-yl)-5-(3-fluoro-5-methoxyphenyl)pyridin-2-amine] the value was < 10 nM; for `Cc1cc(F)cc(-c2cnc(N)c(-c3nc4cc(C#N)cc(F)c4[nH]3)c2N2CCC(N)CC2)c1` [Compound 1-69, 2-[2-amino-4-(4-aminopiperidin-1-yl)-5-(3-fluoro-5-methylphenyl)pyridin-3-yl]-7-fluoro-1H-1,3-benzodiazole-5-carbonitrile], < 10 nM.

Source of the values: patent US11072598B2, “Somatostatin modulators and uses thereof” (CRINETICS PHARMACEUTICALS, INC., priority 2017, dated 2021).
